Tested on: gene expression in etiolated eto1-4 seedlings
Test: Transcriptional profiling (ATH1 GeneChip microarray) of etiolated eto1-4 seedlings
Assay type: in vivo, Arabidopsis thaliana
Settings: ratio eto1-4 treated to eto1-4 (no treatment)
Protocol: For chemical treatments, seeds were sown on 0.5×MS agar medium supplemented with 10 μM chemicals (AVG, compounds 9393, 9370, and 7303) or DMSO (as control). Arabidopsis seeds were stratified in the dark at 4° C. for 4 days, then germinated in the dark for 3 days at 22° C. Approximately 2,000 etiolated seedlings of the wild type or eto1-4 were used to collect tissues for preparation of total RNA in each microarray experiment with Arabidopsis ATH1 GeneChip (Affymetrix). Extraction of RNA followed an established protocol (Chang, et al. (1993) Plant Mol. Biol. Rep. 11, 113-117). Total RNA (10 μg) was used to prepare biotinylated cRNA for hybridization to ATH1 GeneChip in the experiments disclosed herein. Experiments were repeated by 2 independent biological duplicates, and candidate genes present in both experiments were selected for further analysis. The MASS method was used for data analysis and normalization by all sample medium. Candidate genes were selected by the following criteria. First, genes with 1.5-fold differential expression between the wild type and eto1-4 were selected as the master gene pool, which was then used for comparison in treatments with AVG and individual exemplary compounds. Data were presented in hierarchical clustering and Venn diagram format. Agilent GeneSpring GX and Bioconductor software were used to analyze the expression profile data. Gene Ontology descriptions were generated by GeneSpring GX and further referred to the TAR GO database. Raw data are available in the GEO database (http://www.ncbi.nlm.nih.gov/geo) with Accession no. GSE20897.
The filtered and normalized expression data set from 22810 probes on the ATH1 Genechip was used for hierarchical clustering of gene expression profiles for comparison between AVG and the exemplary invention compounds in eto1-4. It was identified that 1,446 genes show at least 1.5-fold difference in expression between the WT and eto1-4 and used them as the master gene pool for clustering analysis (FIG. 7A). […] These genes likely contribute to the etiolated phenotype of eto1-4 by responding to elevated endogenous ethylene. To determine whether the exemplary compounds have specific r overlapping functions with AVG to suppress the eto1-4 phenotype, genes that are regulated by individual exemplary invention compounds and AVG for Venn diagram analysis were clustered (FIG. 7B). More than 63% of genes (356/561 for compound 9393; 389/561 for compound 9370; 399/561 for compound 7303; FIG. 7B) with expression associated with AVG were co-regulated by the exemplary invention compounds, which indicates an overlap function in suppression of the ethylene phenotype in eto1-4. […] Next genes co-regulated by all of the exemplary invention compounds and AVG were examined by performing a clustering analysis using the co-regulated genes identified in FIG. 7B: 356 (compound 9393 vs AVG), 389 (compound 9370 vs AVG) and 399 genes (compound 7303 vs AVG). It was uncovered that 276 genes were co-regulated by all of the exemplary invention compounds and AVG (FIG. 7C and Table 2). On the basis of GO descriptions generated by Gene Spring GX and TAIR database, the 276 genes were divided into subgroups related to their biological functions (Table 2). […] In addition, stress- and pathogenesis-related genes were among the co-regulated genes, possibly because ethylene is involved in both biotic and abiotic stresses.
Genes (1446 non-redundant loci) were selected by 1.5-fold differential expression between eto1-4 and WT as the master pool for analysis. These genes were used for comparison between chemical treatments by AVG and the exemplary invention compounds. The finalized 276 genes that are co-regulated by AVG and all of the exemplary invention compounds are shown. Locus ID also present in Nemhauser et al. (Nemhauser, et al. (2006) Cell 126, 467-475).

## Cc1ccc(C2CC(=O)c3cnc(NC4CCCC4)nc3C2)cc1 (centres unmarked) [Compound 9370]
  Signal Fold Change AT3G14850, unknown biological function: 0.20
  Signal Fold Change AT3G15890 protein kinase: 1.86
  Signal Fold Change AT3G16450 jacalin lectin protein: 2.54
  Signal Fold Change AT3G16470 jacalin lectin protein: 5.60
  Signal Fold Change AT3G16690, unknown biological function: 3.80
  Signal Fold Change AT3G17680, unknown biological function: 0.24
  Signal Fold Change AT3G20130 cytochrome P450: 1.73
  Signal Fold Change AT3G21770 peroxidase 30: 2.01
  Signal Fold Change AT3G22620 lipid transfer protein: 2.14
  Signal Fold Change AT3G23150 ethylene receptor, putative (ETR2): 0.16
  Signal Fold Change AT3G23800, unknown biological function: 0.40
  Signal Fold Change AT3G24670, unknown biological function: 0.32
  Signal Fold Change AT3G25710 bHLH protein: 2.47
  Signal Fold Change AT3G25730 AP2-containing transcription factor: 0.30
  Signal Fold Change AT3G25980 mitotic spindle checkpoint protein: 2.23
  Signal Fold Change AT3G27580 protein kinase: 0.56
  Signal Fold Change AT3G28290, unknown biological function: 0.18
  Signal Fold Change AT3G29250 short-chain dehydrogenase: 5.52
  Signal Fold Change AT3G30775 proline oxidase, mitochondrial: 3.13
  Signal Fold Change AT3G43270 pectinesterase protein: 0.20
  Signal Fold Change AT3G44820, response to light stimulus, phototropic-responsive NPH3 protein: 2.56
  Signal Fold Change AT3G44990 endo-xyloglucan transferase: 0.22
  Signal Fold Change AT3G45710 proton-dependent oligopeptide transport (POT) protein: 2.40
  Signal Fold Change AT3G46130 myb transcription factor (MYB48): 2.15
  Signal Fold Change AT3G46700 UDP-glucosyl transferase: 5.15
  Signal Fold Change AT3G47210, unknown biological function: 2.73
  Signal Fold Change AT3G47250, unknown biological function: 4.89
  Signal Fold Change AT3G49780 phytosulfokines 3 (PSK3): 7.46
  Signal Fold Change AT3G50660 steroid 22-alpha-hydroxylase: 4.00
  Signal Fold Change AT3G51410, unknown biological function: 0.32
  Signal Fold Change AT3G51970, unknown biological function: 2.88
  Signal Fold Change AT3G52180 protein tyrosine phosphatase: 0.25
  Signal Fold Change AT3G52920 expressed protein (defense response): 2.82
  Signal Fold Change AT3G53540, unknown biological function: 0.35
  Signal Fold Change AT3G56480, unknown biological function: 2.39
  Signal Fold Change AT3G58710 WRKY transcription factor: 2.65
  Signal Fold Change AT3G59370, unknown biological function: 2.99
  Signal Fold Change AT3G59710 short-chain dehydrogenase: 0.38
  Signal Fold Change AT3G59900, unknown biological function: 0.39
  Signal Fold Change AT3G60520, unknown biological function: 0.28
  Signal Fold Change AT3G61160 shaggy-related protein kinase beta/ASK-beta (ASK2): 3.86
  Signal Fold Change AT4G00730 anthocyaninless2: 0.54
  Signal Fold Change AT4G01410, unknown biological function: 0.27
  Signal Fold Change AT4G03140 short-chain dehydrogenase: 0.38
  Signal Fold Change AT4G08300, unknown biological function: 3.20
  Signal Fold Change AT4G09570 calcium-dependent protein kinase: 0.35
  Signal Fold Change AT4G10910, unknown biological function: 4.65
  Signal Fold Change AT4G11190 disease resistance-responsive protein: 9.98
  Signal Fold Change AT4G11280 ACC synthase 6: 2.29
  Signal Fold Change AT4G11310 cysteine proteinase: 9.04
  Signal Fold Change AT4G12080, unknown biological function: 2.05
  Signal Fold Change AT4G12410 auxin-responsive protein: 2.89
  Signal Fold Change AT4G12480 lipid transfer protein: 0.17
  Signal Fold Change AT4G13210, unknown biological function: 0.25
  Signal Fold Change AT4G15550 UDP-glucose:indole-3-acetate beta-D-glucosyltransferase: 0.28
  Signal Fold Change AT4G15920, unknown biological function: 17.08
  Signal Fold Change AT4G17220 expressed protein (cytoskeleton organization and biogenesis): 2.35
  Signal Fold Change AT4G18340 glycosyl hydrolase: 2.70
  Signal Fold Change AT4G23410 senescence-associated protein: 2.34
  Signal Fold Change AT4G25780, unknown biological function: 11.52
  Signal Fold Change AT4G26010 peroxidase: 0.38
  Signal Fold Change AT4G28085, unknown biological function: 4.84
  Signal Fold Change AT4G31000, unknown biological function: 0.61
  Signal Fold Change AT4G32920, unknown biological function: 2.35
  Signal Fold Change AT4G34560, unknown biological function: 1.85
  Signal Fold Change AT4G34760 auxin-responsive protein: 0.15
  Signal Fold Change AT4G35060 copper chaperone: 3.80
  Signal Fold Change AT4G35150, unknown biological function: 0.28
  Signal Fold Change AT4G36520, unknown biological function: 2.70
  Signal Fold Change AT4G37220 stress-responsive protein: 6.12
  Signal Fold Change AT4G38690, signal transduction, 1-phosphatidylinositol: 3.04
  Signal Fold Change AT4G39210 ADP-glucose pyrophosphorylase: 0.28
  Signal Fold Change AT4G39800 inositol-3-phosphate synthase isozyme 1: 2.08
  Signal Fold Change AT4G39840, unknown biological function: 0.29
  Signal Fold Change AT5G01210, unknown biological function: 0.31
  Signal Fold Change AT5G01300, unknown biological function: 1.40
  Signal Fold Change AT5G02260, cell wall organization and biogenesis, expansin (EXP9): 0.10
  Signal Fold Change AT5G02540 short-chain dehydrogenase: 0.12
  Signal Fold Change AT5G03160 DNAJ heat shock N-terminal domain-containing protein: 2.78
  Signal Fold Change AT5G04080, unknown biological function: 2.55
  Signal Fold Change AT5G05180, unknown biological function: 1.95
  Signal Fold Change AT5G06200, unknown biological function: 2.10
  Signal Fold Change AT5G08240, unknown biological function: 2.31
  Signal Fold Change AT5G08260 serine carboxypeptidase S10 protein: 0.38
  Signal Fold Change AT5G08370 alpha-galactosidase: 4.06
  Signal Fold Change AT5G09980 expressed protein (defense response): 0.38
  Signal Fold Change AT5G10720 sensory transduction histidine kinase: 0.32
  Signal Fold Change AT5G11540, unknown biological function: 5.68
  Signal Fold Change AT5G12170, response to cadmium ion, expressed protein: 0.34
  Signal Fold Change AT5G13870 endo-xyloglucan transferase: 0.11
  Signal Fold Change AT5G13910 AP2/EREBP-like transcription factor: 0.39
  Signal Fold Change AT5G14780 formate dehydrogenase: 0.35
  Signal Fold Change AT5G14920 gibberellin-regulated protein: 0.31
  Signal Fold Change AT5G15290, unknown biological function: 2.42
  Signal Fold Change AT5G15530 biotin carboxyl carrier protein 2: 0.38
  Signal Fold Change AT5G15830 bZIP transcription factor protein: 4.18
  Signal Fold Change AT5G18470, unknown biological function: 0.18
  Signal Fold Change AT5G18670 beta-amylase: 0.40
  Signal Fold Change AT5G18860, unknown biological function: 2.08
  Signal Fold Change AT5G18970, unknown biological function: 3.58
  Signal Fold Change AT5G19890 peroxidase: 0.08
  Signal Fold Change AT5G19930, unknown biological function: 1.64
  Signal Fold Change AT5G20410 monogalactosyldiacylglycerol synthase: 3.75
  Signal Fold Change AT5G22310, unknown biological function: 0.31
  Signal Fold Change AT5G22860 serine carboxypeptidase S28 protein: 3.54
  Signal Fold Change AT5G23750, unknown biological function: 4.16
  Signal Fold Change AT5G24870, unknown biological function: 2.17
  Signal Fold Change AT5G25140 cytochrome P450: 5.04
  Signal Fold Change AT5G25160 zinc finger (C2H2 type) protein: 3.03
  Signal Fold Change AT5G25190 ethylene-responsive element-binding protein: 0.40
  Signal Fold Change AT5G34940, unknown biological function: 0.46
  Signal Fold Change AT5G37300, unknown biological function: 3.03
  Signal Fold Change AT5G38930, unknown biological function: 0.24
  Signal Fold Change AT5G39860 bHLH protein: 3.46
  Signal Fold Change AT5G41900 hydrolase: 3.08
  Signal Fold Change AT5G44410, unknown biological function: 3.27
  Signal Fold Change AT5G44580, unknown biological function: 0.21
  Signal Fold Change AT5G46890 lipid transfer protein: 3.94
  Signal Fold Change AT5G47240, unknown biological function: 4.32
  Signal Fold Change AT5G47330 palmitoyl protein thioesterase protein: 3.02
  Signal Fold Change AT5G47450 major intrinsic protein: 2.71
  Signal Fold Change AT5G47950, unknown biological function: 2.55
  Signal Fold Change AT5G48490 lipid transfer protein: 12.97
  Signal Fold Change AT5G48900, unknown biological function: 0.48
  Signal Fold Change AT5G49900, unknown biological function: 2.96
  Signal Fold Change AT5G50720 ABA-responsive protein (HVA22e): 2.65
  Signal Fold Change AT5G52120 SKP1 interacting partner 3 protein: 7.26
  Signal Fold Change AT5G53190, unknown biological function: 6.92
  Signal Fold Change AT5G53830, unknown biological function: 0.39
  Signal Fold Change AT5G56320, cell wall organization and biogenesis, expansin (EXP14): 2.90
  Signal Fold Change AT5G58660, unknown biological function: 0.27
  Signal Fold Change AT5G59540 oxidoreductase: 0.40
  Signal Fold Change AT5G63450 cytochrome P450: 8.71
  Signal Fold Change AT5G63650 serine/threonine protein kinase: 0.33
  Signal Fold Change AT5G65970 seven transmembrane MLO protein: 2.88
  Signal Fold Change AT5G66310, microtubule-based movement, kinesin motor protein: 0.45
  Signal Fold Change AT5G66400 dehydrin (RAB18): 0.81
  Signal Fold Change AT5G66440, unknown biological function: 0.31
  Signal Fold Change AT5G66460 (1-4)-beta-mannan endohydrolase: 0.42
  Signal Fold Change AT5G66780, unknown biological function: 0.86

— patent US8481459B2, “Chemical inhibitors of ethylene biosynthesis” (Academia Sinica, priority 2010, dated 2013)
